{"source": "patent US20250152528A1", "about": "“RAPID RELIEF SPRAY” (HALEON US HOLDINGS LLC, priority 2022, published 2025)", "key": {"[1]": {"assay": "Two weak acid combinations with lidocaine citrate: pH, precipitation and stability at 4° C. for 3 months", "details": "for Observation: appearance of solution; for Time to Lidocaine Citrate Precipitation: kept at 4° C. for 3 months; for pH: lidocaine citrate solution (25 wt. % ethanol, 15 wt. % glycerin, 2.5 wt. % propylene glycol) with 2 wt. % acidifying agent; for colour of solution after change from clear: ambient conditions", "protocol": "The pH was then measured, and stability was tested by keeping the resulting solutions at 4° C. for 3 months."}, "[2]": {"details": "has been observed; in aqueous solutions; cited from earlier work"}, "[3]": {"details": "cited from earlier work"}, "[4]": {"assay": "Crystallization inhibitors and free base lidocaine crystallization in low pH solutions", "type": "physicochemical", "details": "5.0 wt. % lidocaine free base, Example 1 composition; 0.5, 1.0, 2.0 wt. % Kollidon VA 64, PVP K-90, PVP K-25 or PVP K-30; pH=3.5 and pH=4 by excess citric acid; 24 samples"}, "[5]": {"details": "5.0 wt. % lidocaine free base, 3.6 wt. % citric acid, 15 wt. % glycerin, 25 wt. % ethanol, water; pH adjusted between 4.5 to 3.5 with excess citric acid at 25° C."}, "[6]": {"details": "5 wt. % lidocaine free base in water with 24 wt. % isopropyl alcohol, 54 wt. % ethanol, or 10 wt. % isopropyl alcohol and 20 wt. % ethanol; pH 4.0 and 3.5 by excess citric acid"}, "[7]": {"details": "2% acidifying agent, pH range of 4.2 to 3.3"}}, "note": "Counter-ions that a name gives are not always drawn."}
{"compound": "CC(=O)O", "note": "[Acetic Acid]", "values": [{"measurement": "Observation", "setting": "[1]; 2 wt. % acidifying agent", "value": "Clear"}, {"measurement": "Time to Lidocaine Citrate Precipitation", "setting": "[1]; 2 wt. % acidifying agent", "value": "Not observed"}, {"measurement": "pH", "setting": "[1]", "value": 4.00}]}
{"compound": "O=C(O)CCCCC(=O)O", "note": "[Adipic Acid]", "values": [{"measurement": "prevention of lidocaine citrate precipitation", "setting": "[1]; 5% acidifying agent", "value": "did not prevent precipitation"}, {"measurement": "Observation", "setting": "[1]; 5% acidifying agent", "value": "Clear"}, {"measurement": "Time to Lidocaine Citrate Precipitation", "setting": "[1]; 5% acidifying agent", "value": 2, "unit": "weeks"}]}
{"compound": "O=C1O[C@H]([C@@H](O)CO)C(O)=C1O", "note": "[Ascorbic acid]", "values": [{"measurement": "prevention of lidocaine citrate precipitation", "setting": "[1]; 5% acidifying agent", "value": "prevented lidocaine citrate precipitation"}, {"measurement": "colour of solution after change from clear", "setting": "[1]; 5% acidifying agent", "value": "orange"}, {"measurement": "Observation", "setting": "[1]; 5% acidifying agent", "value": "Oxidized"}, {"measurement": "Time to Lidocaine Citrate Precipitation", "setting": "[1]; 5% acidifying agent", "value": "Not observed"}]}
{"compound": "O=C(O)/C=C/C(=O)O", "note": "[Fumaric acid]", "values": [{"measurement": "colour of solution after change from clear", "setting": "[1]; 2% acidifying agent", "value": "pale yellow solutions"}, {"measurement": "prevention of lidocaine citrate precipitation", "setting": "[1]; [7]", "value": "prevented lidocaine citrate precipitation"}, {"measurement": "Observation", "setting": "[1]; 2 wt. % acidifying agent", "value": "Oxidized"}, {"measurement": "Time to Lidocaine Citrate Precipitation", "setting": "[1]; 2 wt. % acidifying agent", "value": "Not observed"}, {"measurement": "pH", "setting": "[1]", "value": 3.72}]}
{"compound": "O=C(O)[C@H](O)[C@@H](O)C(=O)O", "note": "[L-Tartaric acid]", "values": [{"measurement": "Observation", "setting": "[1]; 2 wt. % acidifying agent", "value": "Clear"}, {"measurement": "Time to Lidocaine Citrate Precipitation", "setting": "[1]; 2 wt. % acidifying agent", "value": "Not observed"}, {"measurement": "pH", "setting": "[1]", "value": 3.71}]}
{"compound": "CC(O)C(=O)O", "note": "(stereo not shown) [Lactic acid]", "values": [{"measurement": "Observation", "setting": "[1]; 2 wt. % acidifying agent", "value": "Clear"}, {"measurement": "Time to Lidocaine Citrate Precipitation", "setting": "[1]; 2 wt. % acidifying agent", "value": "Not observed"}, {"measurement": "pH", "setting": "[1]", "value": 4.05}]}
{"compound": "O=C(O)/C=C\\C(=O)O", "note": "[Maleic acid]", "values": [{"measurement": "colour of solution after change from clear", "setting": "[1]; 2% acidifying agent", "value": "pale yellow solutions"}, {"measurement": "prevention of lidocaine citrate precipitation", "setting": "[1]; [7]", "value": "prevented lidocaine citrate precipitation"}, {"measurement": "Observation", "setting": "[1]; 2 wt. % acidifying agent", "value": "Oxidized"}, {"measurement": "Time to Lidocaine Citrate Precipitation", "setting": "[1]; 2 wt. % acidifying agent", "value": "Not observed"}, {"measurement": "pH", "setting": "[1]", "value": 3.32}]}
{"compound": "O=C(O)CC(O)C(=O)O", "note": "(stereo not shown) [Malic Acid]", "values": [{"measurement": "amount at which irritant to a healthy skin", "setting": "[2]", "value": "≥ 5", "unit": "wt. %"}, {"measurement": "Observation", "setting": "[1]; 2 wt. % acidifying agent", "value": "Clear"}, {"measurement": "Time to Lidocaine Citrate Precipitation", "setting": "[1]; 2 wt. % acidifying agent", "value": "Not observed"}, {"measurement": "pH", "setting": "[1]", "value": 3.93}]}
{"compound": "CNC[C@H](O)c1cccc(O)c1", "note": "[Phenylephrine]", "values": [{"measurement": "pH of solutions in which stable", "setting": "[3]; background statement", "value": "≤ 4.0"}]}
{"compound": "O=C(O)CCC(=O)O", "note": "[Succinic acid]", "values": [{"measurement": "Observation", "setting": "[1]; 2 wt. % acidifying agent", "value": "Clear"}, {"measurement": "Time to Lidocaine Citrate Precipitation", "setting": "[1]; 2 wt. % acidifying agent", "value": "Not observed"}, {"measurement": "pH", "setting": "[1]", "value": 4.23}]}
{"compound": "CCN(CC)CC(=O)Nc1c(C)cccc1C", "note": "[lidocaine free base, lidocaine]", "values": [{"measurement": "lidocaine crystallization with crystallization inhibitors", "setting": "[4]", "value": "thick layer of lidocaine crystallization"}, {"measurement": "pH at which precipitation of lidocaine starts", "setting": "[5]", "value": 4.0}]}
{"compound": "CNC[C@H](O)c1cccc(O)c1", "note": "[phenylephrine HCl]", "values": [{"measurement": "pH of solutions in which unstable", "setting": "[3]; approximately", "value": "> 4"}]}
{"compound": "lidocaine citrate", "values": [{"measurement": "crystallization in aqueous alcohol cosolvents", "setting": "[6]", "value": "crystallized out of all samples as an opaque layer"}, {"measurement": "pH of lower pH solutions in which the salt crystallizes out", "setting": "citrate salt generated in situ", "value": "≤ 4.5"}]}
{"compound": "lidocaine malate", "values": [{"measurement": "crystallization at low pH on storage", "setting": "1:1 molar lidocaine free base and malic acid in water, excess malic acid to pH 3.6, several weeks at 4° C.", "value": "No lidocaine malate crystallization was observed"}]}
